Experimental data reported in US5840910A, “Pyridine derivatives having anti-ulcerative activity” (Esai Co., Ltd., priority 1986, dated 1998).
Entries after “also recorded” stand apart in the source; their conditions may differ. Structures can show the parent of a compound that is named as a salt. Each block holds one compound with its values, some of them ahead of it.

Key:
H^+ -K^+ ATPase = molecular target: T1, H^+ -K^+ ATPase (Sus scrofa, UniProt P19156); assay: Inhibition against the activity of H^+ -K^+ ATPase; assay type: biochemical, pig; settings: for IC50: 40 mM Tris-HCl pH 7.40, 37° C., 30 minutes incubation
T1 construct: Prepared from the fundic-glands of a fresh mucous membrane of a pig stomach; from tissue; host or cells: pig stomach, fundic glands of fresh mucous membrane (modified method of Saccomani et al., 1977)
Protocol: Prepared from the fundic-glands of a fresh mucous membrane of a pig stomach according to a modified method of Saccomani al. (see Biochem. and Biophys. Acta, 464; 313 (1977)). The compound of the present invention was incubated at various concentration in a 40 mM Tris-HCl buffer solution having a pH of 7.40 together with H^+ -K^+ ATPase and 10 μg/ml of a protein at 37° C. for 30 minutes, followed by the addition of 15 mM KCl. After 10 minutes, the ATPase reaction was initiated by the addition of 3 mM of MgCl2 and ATP. After 10 minutes, the amount of the released inorganic phosphoric acid was determined according to the method of Yoda and Hokin (see Biochem. Biophys. Res. Com., 40, 880 (1970)). The test compound was used as a solution in methanol. The inhibitory effect was determined by subtracting the amount of the released inorganic acid observed with respect to the case wherein a solution of a test compound was added from that with respect to the control wherein only a solvent was added to determine a difference and dividing this difference by the latter amount and shown by percentage.

[1] = tested on: pentagastrin-stimulated gastric acid secretion; assay: Pentagastrin-stimulated gastric acid secretion and its recovery in chronic gastric fistula dogs; assay type: in vivo, dog; settings: for Time required for the acid secretion to recover: 4 mg per kg intraduodenal; for Gastric acid secretion, percent of the control response, 1 hr: 1 hr after 4 mg per kg intraduodenal; for Gastric acid secretion, percent of the control response, 24 hr: 24 hr after 4 mg per kg intraduodenal; for Gastric acid secretion, percent of the control response, 48 hr: 48 hr after 4 mg per kg intraduodenal; for Inhibition of pentagastrin-stimulated gastric acid secretion (in words): within one hour from intraduodenal administration, 4 mg per kg
Protocol: Chronic gastric fistula dogs were used. The test compound was intraduodenally administered to each dog in an amount of 4 mg per kg. In 1, 24, 48 and 72 hours, respectively, from the time of administration, pentagastrin (6 micron grams per kg) was injected intramuscularly into the dog. Gastric acid secretion, determined and recovery thereof, was determined in terms of percent of the control response.

[2] = Toxicological influence, oral, one week, beagle dogs; assay type: in vivo; settings: 10 mg/kg per day for one week
[3] = tested on: histamine-stimulated gastric acid secretion; assay: Inhibitory effect on histamine-stimulated gastric acid secretion of chronic gastric fistula dogs; assay type: in vivo, dog; settings: for ED50: Canis lupus familiaris, 1 h, intraduodenal, histamine-stimulated, read-out: ID 50, calculated from the dose-inhibition curve
Protocol: Chronic gastric fistula dogs were used. Gastric acid secretion of each dog was stimulated by infusing 100 micron grams per kg per hour of histamine. After one hour of histamine infusion, each of the test compounds was administered intraduodenally to each dog, and after one hour of administration, the amount of gastric acid secretion of each test dog was determined. Results wore compared with the control group to which no test compound had been administered and are expressed in terms of percent inhibition.

[4] = Toxicological influence, oral, one week, rats; assay type: in vivo; settings: rats (printed rate), 50 mg/kg per day for one week

T1 sequence (P19156 2-1034 limits assumed): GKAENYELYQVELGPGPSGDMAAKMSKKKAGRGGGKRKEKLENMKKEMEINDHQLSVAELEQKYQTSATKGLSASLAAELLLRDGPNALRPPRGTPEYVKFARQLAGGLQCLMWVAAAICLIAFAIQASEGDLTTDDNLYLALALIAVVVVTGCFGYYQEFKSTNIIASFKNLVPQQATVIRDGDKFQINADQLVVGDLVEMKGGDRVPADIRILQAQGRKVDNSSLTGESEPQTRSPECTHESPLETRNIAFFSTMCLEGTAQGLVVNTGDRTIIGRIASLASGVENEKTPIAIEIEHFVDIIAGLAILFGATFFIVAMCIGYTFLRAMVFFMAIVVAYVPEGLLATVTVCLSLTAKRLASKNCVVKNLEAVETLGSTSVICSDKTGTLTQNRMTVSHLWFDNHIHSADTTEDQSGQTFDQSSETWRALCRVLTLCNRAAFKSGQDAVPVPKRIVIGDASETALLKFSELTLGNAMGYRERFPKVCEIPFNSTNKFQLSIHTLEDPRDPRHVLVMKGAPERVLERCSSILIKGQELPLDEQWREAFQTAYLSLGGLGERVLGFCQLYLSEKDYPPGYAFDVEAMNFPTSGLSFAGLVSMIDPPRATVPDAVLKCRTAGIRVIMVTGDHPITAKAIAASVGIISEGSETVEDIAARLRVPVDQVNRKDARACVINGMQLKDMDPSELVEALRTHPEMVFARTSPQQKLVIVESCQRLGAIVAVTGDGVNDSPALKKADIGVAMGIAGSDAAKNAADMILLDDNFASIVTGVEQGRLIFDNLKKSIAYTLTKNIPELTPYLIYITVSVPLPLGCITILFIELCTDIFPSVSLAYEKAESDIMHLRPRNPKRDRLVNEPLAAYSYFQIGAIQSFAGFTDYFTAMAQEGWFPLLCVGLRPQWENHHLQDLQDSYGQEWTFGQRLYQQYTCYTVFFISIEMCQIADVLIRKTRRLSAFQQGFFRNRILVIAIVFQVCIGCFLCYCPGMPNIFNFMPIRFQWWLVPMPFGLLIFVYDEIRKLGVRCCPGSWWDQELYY
T1 sequence (P18434 whole entry partner): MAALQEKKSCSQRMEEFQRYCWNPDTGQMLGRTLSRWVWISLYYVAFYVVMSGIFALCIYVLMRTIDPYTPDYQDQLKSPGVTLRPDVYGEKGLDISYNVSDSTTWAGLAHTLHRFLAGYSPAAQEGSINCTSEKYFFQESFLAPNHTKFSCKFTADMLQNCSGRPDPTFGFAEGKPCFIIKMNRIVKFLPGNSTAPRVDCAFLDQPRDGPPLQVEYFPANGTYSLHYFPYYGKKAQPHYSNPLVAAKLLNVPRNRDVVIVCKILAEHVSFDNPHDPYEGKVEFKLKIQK

SMILES: Cc1c(OCCOCc2ccccc2)ccnc1C[S+]([O-])c1nc2ccccc2[nH]1 (stereo not drawn) [Compound 1]
IC50 (H^+ -K^+ ATPase): 920 nM

SMILES: COc1ccc2[nH]c([S+]([O-])Cc3nccc(OCCOCc4ccccc4)c3C)nc2c1 (stereo not drawn) [Compound 2]
IC50 (H^+ -K^+ ATPase): 1400 nM

SMILES: Cc1c(OCCOCc2ccccc2)ccnc1C[S+]([O-])c1nc2cc(C(F)(F)F)ccc2[nH]1 (stereo not drawn) [Compound 3]
IC50 (H^+ -K^+ ATPase): 1000 nM

SMILES: Cc1c(OCCN2C(=O)CCC2=O)ccnc1C[S+]([O-])c1nc2ccccc2[nH]1 (stereo not drawn) [Compound 4]
IC50 (H^+ -K^+ ATPase): 11000 nM

SMILES: Cc1c(OCCN2CCCC2=O)ccnc1C[S+]([O-])c1nc2ccccc2[nH]1 (stereo not drawn) [Compound 5]
IC50 (H^+ -K^+ ATPase): 2400 nM

SMILES: COCCOCCOc1ccnc(C[S+]([O-])c2nc3cc(C(F)(F)F)ccc3[nH]2)c1C (stereo not drawn) [Compound 6]
IC50 (H^+ -K^+ ATPase): 550 nM

SMILES: COCCOCCOc1ccnc(C[S+]([O-])c2nc3cc(OC)ccc3[nH]2)c1C (stereo not drawn) [Compound 7]
IC50 (H^+ -K^+ ATPase): 1700 nM

SMILES: Cc1c(OCCOCc2ccccn2)ccnc1C[S+]([O-])c1nc2ccccc2[nH]1 (stereo not drawn) [Compound 8]
IC50 (H^+ -K^+ ATPase): 1200 nM

SMILES: COc1ccc2[nH]c([S+]([O-])Cc3nccc(OCCN4CCCC4=O)c3C)nc2c1 (stereo not drawn) [Compound 9]
IC50 (H^+ -K^+ ATPase): 13000 nM

SMILES: Cc1c(OCCO)ccnc1C[S+]([O-])c1nc2ccccc2[nH]1 (stereo not drawn) [Compound 10]
IC50 (H^+ -K^+ ATPase): 1900 nM

SMILES: COCCCOc1ccnc(C[S+]([O-])c2nc3ccccc3[nH]2)c1C (stereo not drawn) [Compound 19, Sodium Salt of 2-[{4-(3-Methoxypropoxy)-3-Methylpyridine-2-Yl}Methylsulfinyl]-1H-Benzimidazole]
Inhibitory effect on the activity of H^+ -K^+ ATPase (in words) (H^+ -K^+ ATPase): significant inhibitory effect
IC50 (H^+ -K^+ ATPase): 1700 nM
Time required for the acid secretion to recover ([1]; pentagastrin): 48 h
Gastric acid secretion, percent of the control response, 1 hr ([1]; pentagastrin): 0%
Gastric acid secretion, percent of the control response, 24 hr ([1]; pentagastrin): 61.9%
Gastric acid secretion, percent of the control response, 48 hr ([1]; pentagastrin): 121.5%
Recovery of gastric acid secretion (in words) ([1]; dog, in vivo): excellent gastric acid secretion recovery
Inhibition of pentagastrin-stimulated gastric acid secretion (in words) [1]: completely inhibited
Toxicological influence [2]: No toxicological influence has been observed
% Inhibition of acid output ([3]; 31.25 μg/Kg intraduodenal): 34.4%
% Inhibition of acid output ([3]; 62.5 μg/Kg intraduodenal): 50.1%
% Inhibition of acid output ([3]; 125 μg/Kg intraduodenal): 67.7%
% Inhibition of acid output ([3]; 250 μg/Kg intraduodenal): 87.4%
% Inhibition of acid output ([3]; 500 μg/Kg intraduodenal): 100.0%
ED50 [3]: 0.0599 mg/kg
Potency compared with Omeprazole, inhibition of gastric acid secretion ([3]; versus Omeprazole): two times more potent; also recorded: more potent inhibitory activity on gastric acid secretion as compared with Omeprazole
Toxicological influence [4]: No toxicological influence has been observed

SMILES: COc1ccc2[nH]c([S+]([O-])Cc3ncc(C)c(OC)c3C)nc2c1 (stereo not drawn) [Omeprazole, reference compound]
Time required for the acid secretion to recover ([1]; pentagastrin): 72 h
Gastric acid secretion, percent of the control response, 1 hr ([1]; pentagastrin): 0.3%
Gastric acid secretion, percent of the control response, 24 hr ([1]; pentagastrin): 32.3%
Gastric acid secretion, percent of the control response, 48 hr ([1]; pentagastrin): 69.1%
Gastric acid secretion, percent of the control response, 72 hr ([1]; 72 hr after 4 mg per kg intraduodenal, pentagastrin): 108.4%
Inhibition of pentagastrin-stimulated gastric acid secretion (in words) [1]: completely inhibited
% Inhibition of acid output ([3]; 62.5 μg/Kg intraduodenal): 41.1%
% Inhibition of acid output ([3]; 125 μg/Kg intraduodenal): 48.6%
% Inhibition of acid output ([3]; 250 μg/Kg intraduodenal): 62.1%
% Inhibition of acid output ([3]; 500 μg/Kg intraduodenal): 91.2%
% Inhibition of acid output ([3]; 1000 μg/Kg intraduodenal): 100.0%
ED50 [3]: 0.112 mg/kg

Results, then the compound that gave them:

IC50 (H^+ -K^+ ATPase): 4200 nM
SMILES: COc1ccc2[nH]c([S+]([O-])Cc3nccc(OCCOCCOCc4ccccc4)c3C)nc2c1 (stereo not drawn) [Compound 11]

IC50 (H^+ -K^+ ATPase): 2600 nM
SMILES: Cc1c(OCCOCCOCc2ccccc2)ccnc1C[S+]([O-])c1nc2ccccc2[nH]1 (stereo not drawn) [Compound 12]

IC50 (H^+ -K^+ ATPase): 630 nM
SMILES: Cc1c(OCCOCCOCc2ccccc2)ccnc1C[S+]([O-])c1nc2cc(C(F)(F)F)ccc2[nH]1 (stereo not drawn) [Compound 13]

IC50 (H^+ -K^+ ATPase): 10000 nM
SMILES: COc1ccc2[nH]c([S+]([O-])Cc3nccc(OCCN4C(=O)CCC4=O)c3C)nc2c1 (stereo not drawn) [Compound 14]

IC50 (H^+ -K^+ ATPase): 72 nM
SMILES: Cc1c(OCCN2C(=O)CCC2=O)ccnc1C[S+]([O-])c1nc2cc(C(F)(F)F)ccc2[nH]1 (stereo not drawn) [Compound 15]

IC50 (H^+ -K^+ ATPase): 1700 nM
SMILES: Cc1c(OCCN2CCCC2=O)ccnc1C[S+]([O-])c1nc2cc(C(F)(F)F)ccc2[nH]1 (stereo not drawn) [Compound 16]

IC50 (H^+ -K^+ ATPase): 3500 nM
SMILES: COc1ccc2[nH]c([S+]([O-])Cc3nccc(OCCO)c3C)nc2c1 (stereo not drawn) [Compound 17]

IC50 (H^+ -K^+ ATPase): 3300 nM
SMILES: COCCOCCOc1ccnc(C[S+]([O-])c2nc3ccccc3[nH]2)c1C (stereo not drawn) [Compound 18]

IC50 (H^+ -K^+ ATPase): 2300 nM
SMILES: CSCCOc1ccnc(C[S+]([O-])c2nc3ccccc3[nH]2)c1C (stereo not drawn) [Compound 20]

IC50 (H^+ -K^+ ATPase): 1300 nM
SMILES: Cc1c(OCCOc2ccccc2)ccnc1C[S+]([O-])c1nc2ccccc2[nH]1 (stereo not drawn) [Compound 21]

IC50 (H^+ -K^+ ATPase): 1900 nM
SMILES: Cc1c(OCCCO)ccnc1C[S+]([O-])c1nc2ccccc2[nH]1 (stereo not drawn) [Compound 22]

IC50 (H^+ -K^+ ATPase): 1400 nM
SMILES: Cc1c(OCCOCCCl)ccnc1C[S+]([O-])c1nc2ccccc2[nH]1 (stereo not drawn) [Compound 23]
